# Results reported in patent US20230293526A1, “METHOD FOR TREATING CANCER WITH A REVERSE TRANSCRIPTASE INHIBITOR” (PrimeFour Therapeutics, Inc., priority 2020, published 2023).
# How the values were obtained:
# Assay in all cases: Cell proliferation Ex.3
# Assay type in all cases: cell-based
# IGROV1 = conditions: Homo sapiens, IGROV-1
# Method: (§1) A dose response relationship on cell proliferation was assessed for Compound 13 on 140 tumor cell lines. […] Cells were cultured in the appropriate media. For the assays, cells were seeded in white cell culture-treated flat and clear bottom multiwell plates and incubated at 37° C. overnight before compound was added. […] on the medium, cell plates were equilibrated to room temperature for one hour, CellTiterGlo reagent (Promega) was added and luminescence was measured approximately an hour later using a luminometer. Raw data were converted into percent cell viability relative to the high and low control, which were set to 10000 and 000, respectively.
# JEG3 = conditions: Homo sapiens, JEG-3
# Method: as §1
# DLD1 = conditions: Homo sapiens, DLD-1
# Method: as §1
# SU-DHL-6 = conditions: Homo sapiens
# Method: as §1
# MDAMB436 = conditions: Homo sapiens, MDA-MB-436
# Method: as §1
# EJ28 = conditions: Homo sapiens, EJ-28
# Method: as §1
# HCT116 = conditions: Homo sapiens, HCT-116
# Method: as §1
# COLO678 = conditions: Homo sapiens, COLO-678
# Method: as §1
# MIAPACA2 = conditions: Homo sapiens, MIA PaCa-2
# Method: as §1
# GRANTA-519 = conditions: Homo sapiens
# Method: as §1
# MCF7 = conditions: Homo sapiens
# Method: as §1
# MT3 = conditions: MT-3
# Method: as §1
# SF268 = conditions: Homo sapiens, SF-268
# Method: as §1
# U87MG = conditions: Homo sapiens, U-87 MG
# Method: as §1
# PANC1 = conditions: Homo sapiens, PANC-1
# Method: as §1
# NCIH460 = conditions: Homo sapiens, NCI-H460
# Method: as §1
# IMR90 = conditions: Homo sapiens, IMR-90
# Method: as §1
# SKMEL5 = conditions: Homo sapiens, SK-MEL-5
# Method: as §1
# HEK293 = conditions: Homo sapiens
# Method: as §1
# SNB75 = conditions: Homo sapiens, SNB-75
# Method: as §1
# MDAMB231 = conditions: Homo sapiens, MDA-MB-231
# Method: as §1
# T24 = conditions: Homo sapiens, T-24
# Method: as §1
# ASPC1 = conditions: Homo sapiens
# Method: as §1
# DU145 = conditions: Homo sapiens, DU-145
# Method: as §1
# SU-DHL-10 = conditions: Homo sapiens, SU-DHL10
# Method: as §1
smiles,measurement,setting,value
C#C[C@]1(CO)O[C@@H](n2cc(F)c(N)nc2=O)C[C@@H]1O [compound 9],IC50,"IGROV1; IGROV1, 72 h",> 10 µM
same,IC50,"IGROV1; IGROV1, 120 h",> 10 µM
same,IC50,"IGROV1; IGROV1, 168 h",> 10 µM
same,IC50,"JEG3; JEG3, 72 h",> 10 µM
same,IC50,"JEG3; JEG3, 120 h",> 10 µM
same,IC50,"JEG3; JEG3, 168 h",> 10 µM
same,IC50,"DLD1; DLD1, 72 h",> 10 µM
same,IC50,"DLD1; DLD1, 120 h",> 10 µM
same,IC50,"DLD1; DLD1, 168 h",> 10 µM
same,IC50,"SU-DHL-6; SU-DHL-6, 72 h",> 10 µM
same,IC50,"SU-DHL-6; SU-DHL-6, 120 h",4.99 µM
same,IC50,"SU-DHL-6; SU-DHL-6, 168 h",1.3 µM
same,IC50,"MDAMB436; MDAMB436, 72 h",> 10 µM
same,IC50,"MDAMB436; MDAMB436, 120 h",> 10 µM
same,IC50,"MDAMB436; MDAMB436, 168 h",> 10 µM
same,IC50,"EJ28; EJ28, 72 h",> 10 µM
same,IC50,"EJ28; EJ28, 120 h",> 10 µM
same,IC50,"EJ28; EJ28, 168 h",> 10 µM
same,IC50,"HCT116; HCT116, 72 h",> 10 µM
same,IC50,"HCT116; HCT116, 120 h",> 10 µM
same,IC50,"HCT116; HCT116, 168 h",> 10 µM
same,IC50,"COLO678; COLO678, 72 h",> 10 µM
same,IC50,"COLO678; COLO678, 120 h",> 10 µM
same,IC50,"COLO678; COLO678, 168 h",> 10 µM
same,IC50,"MIAPACA2; MIAPACA2, 72 h",> 10 µM
same,IC50,"MIAPACA2; MIAPACA2, 120 h",> 10 µM
same,IC50,"MIAPACA2; MIAPACA2, 168 h",> 10 µM
same,IC50,"GRANTA-519; Granta-519, 72 h",4.98 µM
same,IC50,"GRANTA-519; Granta-519, 120 h",0.24 µM
same,IC50,"GRANTA-519; Granta-519, 168 h",0.35 µM
same,IC50,"MCF7; MCF7, 72 h",> 10 µM
same,IC50,"MCF7; MCF7, 120 h",> 10 µM
same,IC50,"MCF7; MCF7, 168 h",> 10 µM
same,IC50,"MT3; MT3, 72 h",> 10 µM
same,IC50,"MT3; MT3, 120 h",3.04 µM
same,IC50,"MT3; MT3, 168 h",> 10 µM
same,IC50,"SF268; SF268, 72 h",> 10 µM
same,IC50,"SF268; SF268, 120 h",> 10 µM
same,IC50,"SF268; SF268, 168 h",> 10 µM
same,IC50,U87MG; 72 h,> 10 µM
same,IC50,U87MG; 120 h,> 10 µM
same,IC50,U87MG; 168 h,> 10 µM
same,IC50,"PANC1; PANC1, 72 h",> 10 µM
same,IC50,"PANC1; PANC1, 120 h",> 10 µM
same,IC50,"PANC1; PANC1, 168 h",> 10 µM
same,IC50,"NCIH460; NCIH460, 72 h",> 10 µM
same,IC50,"NCIH460; NCIH460, 120 h",> 10 µM
same,IC50,"NCIH460; NCIH460, 168 h",> 10 µM
same,IC50,"IMR90; IMR90, 72 h",> 10 µM
same,IC50,"IMR90; IMR90, 120 h",> 10 µM
same,IC50,"IMR90; IMR90, 168 h",> 10 µM
same,IC50,"SKMEL5; SKMEL5, 72 h",> 10 µM
same,IC50,"SKMEL5; SKMEL5, 120 h",> 10 µM
same,IC50,"SKMEL5; SKMEL5, 168 h",> 10 µM
same,IC50,"HEK293; HEK293, 72 h",> 10 µM
same,IC50,"HEK293; HEK293, 120 h",> 10 µM
same,IC50,"HEK293; HEK293, 168 h",> 10 µM
same,IC50,"SNB75; SNB75, 72 h",> 10 µM
same,IC50,"SNB75; SNB75, 120 h",> 10 µM
same,IC50,"SNB75; SNB75, 168 h",> 10 µM
same,IC50,"MDAMB231; MDAMB231, 72 h",> 10 µM
same,IC50,"MDAMB231; MDAMB231, 120 h",> 10 µM
same,IC50,"MDAMB231; MDAMB231, 168 h",> 10 µM
same,IC50,"T24; T24, 72 h",> 10 µM
same,IC50,"T24; T24, 120 h",> 10 µM
same,IC50,"T24; T24, 168 h",> 10 µM
same,IC50,"ASPC1; ASPC1, 72 h",> 10 µM
same,IC50,"ASPC1; ASPC1, 120 h",0.72 µM
same,IC50,"ASPC1; ASPC1, 168 h",0.49 µM
same,IC50,"DU145; DU145, 72 h",> 10 µM
same,IC50,"DU145; DU145, 120 h",> 10 µM
same,IC50,"DU145; DU145, 168 h",> 10 µM
same,IC50,"SU-DHL-10; SU-DHL-10, 72 h",0.14 µM
same,IC50,"SU-DHL-10; SU-DHL-10, 120 h",61.5 µM
same,IC50,"SU-DHL-10; SU-DHL-10, 168 h",3.86 µM
